Reference: ChEMBL document CHEMBL5604063, “ASAP - DENV-2 NS2B-NS3 protease fluorescence dose response” (2024)
“And” between values parts separate entries of the source, which are not always exact repeats. Identical values can stand only once.

Assays:
[1] = biological target: T1, Genome polyprotein (dengue virus type 2, UniProt P29990); format: functional, Thailand/16681/1984
[2] = biological target: T1, Genome polyprotein; format: functional, Thailand/16681/1984; remark: listed apart in the source

T1 sequence (P29990 1346-1475 limits assumed): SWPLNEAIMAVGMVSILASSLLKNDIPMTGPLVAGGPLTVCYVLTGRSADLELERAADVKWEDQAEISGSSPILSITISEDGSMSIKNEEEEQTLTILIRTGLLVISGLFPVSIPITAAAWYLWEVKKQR
T1 sequence (P29990 1476-2093 limits assumed): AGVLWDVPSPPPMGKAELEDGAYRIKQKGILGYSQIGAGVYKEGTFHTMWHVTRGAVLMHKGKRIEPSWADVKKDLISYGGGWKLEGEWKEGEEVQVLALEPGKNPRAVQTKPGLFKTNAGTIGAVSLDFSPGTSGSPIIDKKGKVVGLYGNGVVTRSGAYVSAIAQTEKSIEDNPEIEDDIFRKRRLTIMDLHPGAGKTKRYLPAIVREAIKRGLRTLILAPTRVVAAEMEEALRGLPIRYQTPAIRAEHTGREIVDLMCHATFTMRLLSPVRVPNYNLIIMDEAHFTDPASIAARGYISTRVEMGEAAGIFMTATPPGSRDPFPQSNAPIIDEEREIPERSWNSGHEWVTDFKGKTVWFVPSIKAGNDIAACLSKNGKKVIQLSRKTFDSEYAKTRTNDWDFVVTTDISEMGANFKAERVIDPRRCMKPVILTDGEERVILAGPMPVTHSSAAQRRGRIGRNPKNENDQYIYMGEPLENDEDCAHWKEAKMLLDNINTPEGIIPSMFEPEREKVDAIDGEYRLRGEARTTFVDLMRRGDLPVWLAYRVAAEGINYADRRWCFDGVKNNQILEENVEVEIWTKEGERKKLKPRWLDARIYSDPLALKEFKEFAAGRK

Compound | IC50 [1] [µM] | IC50 [2]
CC(C)c1cc(NC(=O)OCc2ccccc2)cc(C(=O)Nc2cccc(CN)c2)c1 | 66.9 | > 100 µM
C=C(C)c1cccc([C@@H](NC(=O)OCc2ccccc2)C(=O)Nc2cccc(CN)c2)c1 | 30.1 | > 100 µM
Cc1c(C(=O)Nc2cccc(Cn3cccn3)c2)cc(C2CC2)n1C | > 99.5 | > 100 µM
CNC(=O)C[C@H]1CC[C@@H](NC(=O)c2cccc3c2CC(=O)N3)CC1 | > 99.5 | > 100 µM
CCC[C@H](C)N1Cc2ccc(NC(=O)c3cc(Cl)cc4[nH]ncc34)cc2C1 | > 99.5 | > 100 µM
O=C1Cc2c(cccc2C(=O)N[C@H]2CCc3ncsc3C2)N1 | > 99.5 | > 100 µM
O=C(Nc1cc(Cl)cc(C(=O)NC[C@@]23CC[C@H](CNC2)C3)c1)OCc1ccccc1 | > 99.5 | > 100 µM
O=C(Nc1cc(Cl)cc(C(=O)NC2(c3nn[nH]n3)CCCC2)c1)OCc1ccccc1 | > 99.5 | > 100 µM
O=C(Nc1ccc2c(c1)CNC2)c1ccc2ncccc2c1 | > 99.5 | > 100 µM
Cc1cc(CN)cc(NS(=O)(=O)c2ccc(Oc3ccccc3Cl)cc2)c1 | > 99.5 | > 100 µM
CC1(C)NCc2cc(NC(=O)c3cc(F)cc4[nH]ncc34)ccc21 | > 99.5 | > 100 µM
CC(C)(C)NC(=O)[C@H](Nc1ccc2c(c1)CNC2)c1cc(Cl)cc(C2CC2)c1 | > 99.5 | > 100 µM
NCc1cccc([C@H](C#CCO)Nc2cc(Cl)cc(NC(=O)OCc3ccccc3)c2)c1 | 64.9 | > 100 µM
CNC(=O)[C@H](Nc1cc(Cl)cc(C2CC2)c1)c1ccc(-c2nn[nH]n2)cc1 | > 99.5 | 99.6 µM and > 100 µM
O=C(Nc1cc(Cl)cc(C(=O)NC2(c3nnn[nH]3)CC2)c1)OCc1ccccc1 | > 99.5 | > 100 µM
C[C@H]1NCCc2c(-c3ccc4[nH]c(C(=O)O)cc4c3)cc(F)cc21 | > 99.5 | > 100 µM
O=C(Nc1cc([C@H]2CCOC2)ccn1)c1ccc2ncsc2c1 | > 99.5 | > 100 µM
O=C(Nc1cc(Cl)cc([C@H](Nc2cccc(-c3nn[nH]n3)c2)C(=O)NC2CCOCC2)c1)OCc1ccccc1 | 40.6 | 13.2 µM and 19.9 µM
O=C(Nc1cc(Cl)cc([C@H]2C[C@@H]2c2ccc3c(c2)CNC3)c1)OCc1ccccc1 | > 99.5 | > 100 µM
Fc1cc(CNc2ccc3c(n2)CNC3)c2cn[nH]c2c1 | > 99.5 | > 100 µM
Cc1cc(C)n([C@H]2CCCN(C(=O)Nc3ccc4c(c3)CNC4)C2)n1 | > 99.5 | > 100 µM
CN(C)c1nc(-c2cc(F)cc(C(=O)Nc3ccc4c(c3)CNC4)c2)cs1 | > 99.5 | > 100 µM
O=C(Nc1cc(Cl)cc(C(=O)Nc2ccc(CCN3CCOCC3)cc2)c1)OCc1ccccc1 | > 99.5 | > 100 µM
O=c1ccc(N2CCN(Cc3c[nH]c4ccccc34)CC2)n[nH]1 | > 99.5 | > 100 µM
CCOc1cccc(-c2ccc(NS(=O)(=O)c3cc(F)c(Cl)cc3C(=O)O)cc2)c1 | 9.4 | 7.73 µM
CC(C)n1cc(C(=O)Nc2cc(-c3cccnc3)ccn2)c2ccccc21 | > 99.5 | > 100 µM
Cc1ccc(-c2cc(CN)cc([C@@H]3C[C@H]3c3cc(Cl)cc(NC(=O)OCc4ccccc4)c3)c2)cn1 | 31.5 | > 100 µM
O=C(Nc1ccc2c(c1)CNCCO2)c1cc(Cl)cc2[nH]ncc12 | > 99.5 | > 100 µM
Cn1nc(CNc2cc(-c3cccnc3)ccn2)cc1C1CC1 | > 99.5 | > 100 µM
O=C(Nc1cc(Cl)cc(C(=O)Nc2cccc(C(=O)O)c2)c1)OCc1ccccc1 | 42.7 | 29.1 µM and 25.3 µM
